Laboratory results published in patent US4758558A, “N-(substituted)-[7-(2-cyanoacetamido)cephalosporanic]amide derivatives having antibiotic utility” (priority 1982, dated 1988).

Assays:
[1] = test system: Staphylococcus aureus IAM 1011; assay: Treatment of experimental infectious disease in mouse due to Staphylococcus aureus; format: in vivo, ddY SPE mice; details: oral, two times just after and 4 hours after inoculation; 2.3×10^8 cells i.p.
Description: (§1) (e) Effectiveness in treating experimental infectious disease due to bacteria:
(§2) (Refer to Example 22 for the details of the test.) As the result, while all the twenty mice artificially infected with each of the two bacterial species and not-treated with any of the present compound died on the second day of inoculation, more than 40% of the twenty mice artificially infected with each of the two bacterial species and administered with each of the three present compounds were alive even after 7 days of inoculation.
(§3) Effectiveness of the present compound in treatment of an experimental infectious disease in mouse
(2) Disease due to infection of Staphylococcus aureus
(§4) Each mouse of the two groups (20 animals/group) of ddY SPE mice was inoculated with 2.3×10^8 cells of Staphylococcus aureus IAM 1011 intraperitoneally, and then, each mouse of the one of the two groups was administered orally with one of the present compounds, namely the compound produced in Example 5, 10 or 13, two times just after and 4 hours after the inoculation, while the 20 mice of the other group were not administered.

[2] = test system: Staphylococcus aureus IAM 1011; assay: Antibacterial activity in vitro (MIC) against Staphylococcus aureus; format: cell-based; details: IAM1011, Mueller-Hinton agar, 18 to 24 hours, 37° C., read-out: MIC (minimum growth inhibiting concentration) against Staphylococcus aureus
In short: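 Agar dilution MIC per Japan Society of Chemotherapy standard: compound dilutions mixed with 9 parts Mueller-Hinton medium to make plates, bacteria streaked ~2 cm with platinum loop. Incubated 18 to 24 hours at 37° C; MIC = lowest concentration completely inhibiting growth.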

[3] = test system: a species of Streptococcus; assay: Effect on intestinal bacteria: number of a sp. of Streptococcus in feces; format: in vivo, ICR mice; details: mouse, in vivo, po, 500 mg/kg/day
In short: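 Female ICR mice aged 6 weeks (five per group) received compound orally at 500 mg/kg/day for 2 days. Feces collected before dosing and one day after were diluted 100-fold in anaerobic phosphate buffer and plated on TATAC agar. Streptococcus colonies were counted after one day at 37 °C.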

Escherichia coli = assay: Effect on intestinal bacteria: number of Escherichia coli in feces; format: in vivo, ICR mice; details: after oral administration for 2 days, 500 mg/kg/day, female ICR mice; before: 6.4
Lactobacillus bifidus = assay: Effect on intestinal bacteria: number of Lactobacillus bifidus in feces; format: in vivo, ICR mice; details: mouse, in vivo, po, 500 mg/kg/day
In short: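 Female ICR mice aged 6 weeks (five per group) were dosed orally with compound at 500 mg/kg/day for 2 days. Feces taken before and one day after dosing were diluted 100-fold in anaerobic phosphate buffer and plated. Bacterial counts determined after incubation, BS agar at 37 °C for 5 days.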

[4] = test system: Escherichia coli IFO 12734; assay: Antibacterial activity in vitro (MIC) against Escherichia coli; format: cell-based; details: IFO12734, Mueller-Hinton agar, 18 to 24 hours, 37° C., read-out: MIC (minimum growth inhibiting concentration) against Escherichia coli
In short: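 Agar-dilution MIC by the Japan Society of Chemotherapy standard method: compound dilutions mixed 1:9 with Mueller-Hinton agar, strains streaked about 2 cm with a loop. Plates incubated 18 to 24 hours at 37° C. MIC is the lowest concentration giving complete growth inhibition.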

[5] = test system: Escherichia coli IFO 12734; assay: Treatment of experimental infectious disease in mouse due to Escherichia coli; format: in vivo, ddY SPE mice; details: oral, two times just after and 4 hours after inoculation; 1.4×10^8 cells i.p.
Description: as §1, §2, §3
(1) Disease due to infection of Escherichia coli
as §4, with “1.4×10^8” for “2.3×10^8”, “Escherichia coli IFO 12734” for “Staphylococcus aureus IAM 1011”

Pseudomonas aeruginosa = assay: Effect on intestinal bacteria: number of Pseudomonas aeruginosa in feces; format: in vivo, ICR mice; details: mouse, in vivo, po, 500 mg/kg/day
In short: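 Female ICR mice aged 6 weeks, five per group, were dosed orally for 2 days at 500 mg/kg/day. Feces were taken before dosing and one day after. Specimens were diluted 100-fold in anaerobic phosphate buffer, ground, plated on selective media (NAC agar, 37° C, one day), and colonies were counted.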

[6] = test system: a species of Lactobacillus; assay: Effect on intestinal bacteria: number of a sp. of Lactobacillus in feces; format: in vivo, ICR mice; details: mouse, in vivo, po, 500 mg/kg/day
In short: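 Female ICR mice (6 weeks, five per group) received compound orally at 500 mg/kg/day for 2 days. Feces taken before and one day after dosing were diluted 100-fold in anaerobic phosphate buffer and plated on LBS agar. Lactobacillus colonies were counted after 5 days at 37° C.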

a species of Bacteroides = assay: Effect on intestinal bacteria: number of a sp. of Bacteroides in feces; format: in vivo, ICR mice; details: mouse, in vivo, po, 500 mg/kg/day
In short: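 Five female ICR mice (6 weeks old) per group received compound orally at 500 mg/kg/day for 2 days. Feces taken before and one day after dosing were diluted 100-fold in anaerobic phosphate buffer, and 0.1 ml was plated on NBGT agar. Bacteroides colonies were counted after 5 days at 37 °C.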

Question: How did the “mice alive on the 7th day of inoculation (Staphylococcus aureus infection)” value [1] turn out when CC(=O)OCC1=C(C(=O)Nc2ccc(C)cc2)N2C(=O)C(NC(=O)CC#N)C2SC1 (stereo not shown) [Example 10, N-(4-methylphenyl)-[7-(2-cyanoacetamido)caphalosporanic]amide] was run?
Answer: more than 85%

Question: And the MIC [2]?
Answer: ≥ 100 µg/mL

Question: And the “Number of a sp. of Streptococcus after the administration” value [3]?
Answer: 6.8 Log10 (number of bacteria/g feces)

Question: And the “Number of Escherichia coli after the administration” value (Escherichia coli)?
Answer: 6.8 Log10 (number of bacteria/g feces)

Question: And the “Number of Lactobacillus bifidus after the administration” value (Lactobacillus bifidus)?
Answer: 8.2 Log10 (number of bacteria/g feces)

Question: What about the MIC [4] of the same molecule?
Answer: ≥ 100 µg/mL

Question: And the “mice alive on the 7th day of inoculation (Escherichia coli infection)” value [5]?
Answer: more than 80%

Question: What about the “Number of Pseudomonas aeruginosa after the administration” value (Pseudomonas aeruginosa) of the same molecule?
Answer: < 3.0 Log10 (number of bacteria/g feces)

Question: And the “Number of a sp. of Lactobacillus after the administration” value [6]?
Answer: 9.0 Log10 (number of bacteria/g feces)

Question: What about the “Number of a sp. of Bacterioides after the administration” value (a species of Bacteroides) of the same molecule?
Answer: 8.9 Log10 (number of bacteria/g feces)
